{
  "source": "ChEMBL document CHEMBL5512610",
  "about": "“Drug discovery and optimization based on the co-crystal structure of natural product with target” (Eur J Med Chem, 2024)",
  "key": {"MRC5 [1]": {"system": "MRC5", "assay": "Cytotoxicity against human MRC5 cells assessed as reduction in cell viability", "format": "functional, cell-based"}, "Plasmodium falciparum": {"system": "Plasmodium falciparum", "assay": "Antiplasmodial activity against Plasmodium falciparum K1 assessed as reduction in parasite growth", "format": "functional, organism-based"}, "[2]": {"assay": "Binding affinity to actin (unknown origin) assessed as dissociation constant", "design": "species or system Homo sapiens"}, "A549": {"system": "A549", "assay": "Growth inhibition of human A549 cells incubated for 72 hrs by MTT assay", "format": "functional"}, "HepG2": {"system": "HepG2", "assay": "Cytotoxicity against human HepG2 cells assessed as reduction in cell growth", "format": "functional, cell-based"}, "Hepatitis C virus": {"system": "Hepatitis C virus", "assay": "Antiviral activity against Hepatitis C virus genotype 1b infected in human Huh-7 cells assessed as reduction in viral infection", "format": "functional, organism-based, Hepacivirus hominis"}, "MRC5 [3]": {"system": "MRC5", "assay": "Antiproliferative activity against human MRC5 cells assessed inhibition of cell growth incubated for 48 hrs by MTT assay", "format": "functional, cell-based", "details": "MRC5, 48 h"}, "[4]": {"assay": "Cytotoxicity against HUVEC cells assessed as inhibition of cell growth incubated for 72 hrs by MTT assay", "format": "toxicity, cell-based", "details": "human"}, "[5]": {"assay": "Cytotoxicity against human ARPE-19 cells assessed as cell growth inhibition incubated for 72 hrs by MTT assay", "format": "toxicity, cell-based"}, "[6]": {"assay": "Oral bioavailability in mouse", "format": "ADME, organism-based", "details": "in vivo"}, "[7]": {"biological_target": "T1, Cyclin-dependent kinase 9 (Homo sapiens, UniProt P50750)", "T1 sequence (P50750 whole entry, the tested form may be a part)": "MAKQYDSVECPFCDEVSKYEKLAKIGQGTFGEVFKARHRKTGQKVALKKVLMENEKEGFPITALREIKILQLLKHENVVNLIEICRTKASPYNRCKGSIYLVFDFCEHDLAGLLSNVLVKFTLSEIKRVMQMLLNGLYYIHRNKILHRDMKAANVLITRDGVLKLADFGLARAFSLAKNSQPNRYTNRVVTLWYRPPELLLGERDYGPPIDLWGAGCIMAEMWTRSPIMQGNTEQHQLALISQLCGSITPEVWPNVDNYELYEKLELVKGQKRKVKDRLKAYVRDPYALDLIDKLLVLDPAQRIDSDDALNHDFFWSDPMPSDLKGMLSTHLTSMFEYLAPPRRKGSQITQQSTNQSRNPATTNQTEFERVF", "assay": "Inhibition of human recombinant CDK9 (773 to 928 residues) expressed in insect cells", "design": "species or system Insect cell"}, "[8]": {"biological_target": "Cyclin-dependent kinase 2 (Homo sapiens, UniProt P24941)", "assay": "Inhibition of CDK2 (unknown origin)"}, "[9]": {"biological_target": "T1, Cyclin-dependent kinase 9", "assay": "Inhibition of CDK9 (unknown origin)"}, "NCI-N87": {"system": "NCI-N87", "assay": "Antitumor activity against human NCI-N87 cells assessed as reduction in cell growth", "format": "functional, cell-based"}},
  "data": [
    {"smiles": "CC[C@]1(NC(=O)N(C)C)[C@@H](N)[C@H](Nc2cccc(C(C)=O)c2)[C@](O)(CO)[C@]1(C)O", "values": [
      {"measurement": "IC50", "setting": "MRC5 [1]", "value": 5.6, "unit": "nM"}
    ]},
    {"smiles": "CC(=O)c1cccc(N[C@H]2[C@H](N)[C@](C)(NC(=O)N(C)C)[C@@](C)(O)[C@@]2(O)CO)c1", "values": [
      {"measurement": "IC50", "setting": "Plasmodium falciparum", "value": 62, "unit": "nM"}
    ]},
    {"smiles": "C=CCC1CC[C@H](C)[C@H](CC(=O)NC[C@H](O)[C@H](C)C(=O)NCCC[C@H]2O[C@@]3(CCC[C@@H](CC[C@H](C)C=C)O3)CC[C@@H]2C)O1", "note": "(stereo partly drawn)", "values": [
      {"measurement": "Kd", "setting": "[2]", "value": 39, "unit": "nM"},
      {"measurement": "GI50", "setting": "A549", "value": 11200, "unit": "nM"}
    ]},
    {"smiles": "CC[C@]1(NC(N)=O)[C@@H](N)[C@H](Nc2cccc(C(C)=O)c2)[C@](O)(CO)[C@]1(C)O", "values": [
      {"measurement": "IC50", "setting": "HepG2", "value": "> 5600", "unit": "nM"}
    ]},
    {"smiles": "C=CCC[C@@H]1CCC[C@]2(CC[C@H](C)[C@@H](CCCNC(=O)[C@@H](C)[C@@H](O)CNC(=O)C[C@@H]3OC(CC(=O)/C=C/C)CC[C@@H]3C)O2)O1", "note": "(stereo partly drawn)", "values": [
      {"measurement": "Kd", "setting": "[2]", "value": 1500, "unit": "nM"},
      {"measurement": "GI50", "setting": "A549", "value": 323, "unit": "nM"}
    ]},
    {"smiles": "CC[C@H]1C[C@H](C)[C@@]2(NC1=O)O[C@@H](C[C@H](O)[C@@H](C)CC/C=C/C=C(\\C)[C@@H]1C/C=C/C=C/[C@H](O)[C@H](C)[C@@H](O)[C@@H](CCC(C)=O)C(=O)N[C@@H](C(C)C)C(=O)N[C@@H](Cc3cccc(O)c3)C(=O)N3CCC[C@H](N3)C(=O)O1)[C@H](C)[C@H](O)[C@@H]2C", "note": "[SANGLIFEHRIN A]", "values": [
      {"measurement": "EC50", "setting": "Hepatitis C virus", "value": 87, "unit": "nM"}
    ]},
    {"smiles": "CC(=O)c1cccc(N[C@H]2[C@H](N)[C@@](NC(=O)N(C)C)([C@H](C)O)[C@@](C)(O)[C@@]2(O)COC(=O)c2c(C)cccc2O)c1", "note": "[PACTAMYCIN]", "values": [
      {"measurement": "IC50", "setting": "MRC5 [3]", "value": 95, "unit": "nM"},
      {"measurement": "IC50", "setting": "HepG2", "value": 86, "unit": "nM"},
      {"measurement": "IC50", "setting": "Plasmodium falciparum", "value": 187, "unit": "nM"}
    ]},
    {"smiles": "CO[C@H]1/C=C\\C=C(/C)C(=O)NC2=C(C)C(=O)C(NCCN(C)C)=C(C[C@@H](C)C[C@H](OC)[C@H](O)[C@@H](C)/C=C(\\C)[C@@H]1OC(N)=O)C2=O", "note": "(stereo in doubt)", "values": [
      {"measurement": "IC50 at 72 h", "setting": "[4]", "value": "> 20000", "unit": "nM"},
      {"measurement": "IC50 at 72 h", "setting": "[5]", "value": "> 20000", "unit": "nM"}
    ]},
    {"smiles": "CC(=O)N(C)[C@H](C(=O)N1C[C@H](C)C[C@H]1C(=O)N(C)[C@@H]1C(=O)N[C@@H](CC(C)C)C(=O)N2C[C@H](C)C[C@H]2C(=O)N[C@@H](CC(C)C)C(=O)N(C)[C@@H](C(C)C)C(=O)N2CC(C3CCCCC3)C[C@H]2C(=O)N(C)[C@H](CC(C)C)C(=O)NCC(=O)O[C@@H]1C)C(C)C", "note": "(stereo partly drawn)", "values": [
      {"measurement": "bioavailability", "setting": "[6]", "value": 89, "unit": "%"}
    ]},
    {"smiles": "COCCC(=O)NC[C@H](O)[C@H](C)C(=O)NCCC[C@H]1O[C@@]2(CCC[C@@H](CC[C@@H](C)/C=C(\\C)[C@@H](C)O)O2)CC[C@@H]1C", "values": [
      {"measurement": "Kd", "setting": "[2]", "value": 9, "unit": "nM"}
    ]},
    {"smiles": "CC[C@]1(NC(N)=O)[C@@H](N)[C@H](Nc2cccc(C(C)=O)c2)[C@](O)(COC(=O)c2c(C)cccc2O)[C@]1(C)O", "values": [
      {"measurement": "IC50", "setting": "HepG2", "value": "> 9500", "unit": "nM"}
    ]},
    {"smiles": "C/C=C/C(=O)C[C@H]1CC[C@H](C)[C@H](CC(=O)NC[C@H](O)[C@H](C)C(=O)NCCC[C@H]2O[C@@]3(CCC[C@@H](CC[C@@H](C)/C=C(\\C)[C@@H](C)O)O3)CC[C@@H]2C)O1", "values": [
      {"measurement": "Kd", "setting": "[2]", "value": 7, "unit": "nM"},
      {"measurement": "GI50", "setting": "A549", "value": 20.4, "unit": "nM"}
    ]},
    {"smiles": "Nc1nccc(-c2c3cccnc3n3c(N)nccc23)n1", "values": [
      {"measurement": "IC50", "setting": "[7]", "value": 26, "unit": "nM"}
    ]},
    {"smiles": "C=CCNC1=C2C[C@@H](C)C[C@H](OC)[C@H](O)[C@@H](C)/C=C(\\C)[C@H](OC(N)=O)[C@@H](OC)/C=C\\C=C(/C)C(=O)NC(=C(c3ccccc3)C1=O)C2=O", "note": "(stereo in doubt)", "values": [
      {"measurement": "IC50 at 72 h", "setting": "[4]", "value": "> 20000", "unit": "nM"},
      {"measurement": "IC50 at 72 h", "setting": "[5]", "value": "> 20000", "unit": "nM"}
    ]},
    {"smiles": "C=C[C@H](C)CCC[C@@H]1CCC[C@]2(CC[C@H](C)[C@@H](CCCNC(=O)[C@@H](C)[C@@H](O)CNC(=O)C[C@@H]3OC(CC(=O)/C=C/C)CC[C@@H]3C)O2)O1", "note": "(stereo partly drawn)", "values": [
      {"measurement": "Kd", "setting": "[2]", "value": 70, "unit": "nM"},
      {"measurement": "GI50", "setting": "A549", "value": 87.1, "unit": "nM"}
    ]},
    {"smiles": "Nc1nccc(-c2c[nH]c3nccc(O)c23)n1", "note": "[MERIOLIN 2]", "values": [
      {"measurement": "IC50", "setting": "[8]", "value": 3100, "unit": "nM"},
      {"measurement": "IC50", "setting": "[9]", "value": 2600, "unit": "nM"}
    ]},
    {"smiles": "Nc1nccc(-c2c[nH]c3ncccc23)n1", "note": "[MERIOLIN 1]", "values": [
      {"measurement": "IC50", "setting": "[9]", "value": 10000, "unit": "nM"}
    ]},
    {"smiles": "CO[C@H]1/C=C\\C=C(/C)C(=O)NC2=CC(=O)C(NCCN(C)C)=C(C[C@@H](C)C[C@H](OC)[C@H](O)[C@@H](C)/C=C(\\C)[C@@H]1OC(N)=O)C2=O", "note": "(stereo in doubt) [ALVESPIMYCIN]", "values": [
      {"measurement": "EC50", "setting": "NCI-N87", "value": 62, "unit": "nM"}
    ]},
    {"smiles": "C=CCNC1=C2C[C@@H](C)C[C@H](OC)[C@H](O)[C@@H](C)/C=C(\\C)[C@H](OC(N)=O)[C@@H](OC)/C=C\\C=C(/C)C(=O)NC(=C(C)C1=O)C2=O", "note": "(stereo in doubt)", "values": [
      {"measurement": "IC50 at 72 h", "setting": "[4]", "value": "> 20000", "unit": "nM"},
      {"measurement": "IC50 at 72 h", "setting": "[5]", "value": "> 20000", "unit": "nM"}
    ]},
    {"smiles": "CC(=O)c1cccc(N[C@H]2[C@H](N)[C@](C)(NC(=O)N(C)C)[C@@](C)(O)[C@@]2(O)COC(=O)c2c(C)cccc2O)c1", "values": [
      {"measurement": "IC50", "setting": "Plasmodium falciparum", "value": 77, "unit": "nM"}
    ]},
    {"smiles": "CC(=O)N(C)[C@H](C(=O)N1C[C@H](C)C[C@H]1C(=O)N(C)[C@@H]1C(=O)N[C@@H](CC(C)C)C(=O)N2C[C@H](C)C[C@H]2C(=O)N[C@@H](CC(C)C)C(=O)N(C)[C@@H](C(C)C)C(=O)N2CC(C)C[C@H]2C(=O)N(C)[C@H](CC(C)C)C(=O)NCC(=O)O[C@@H]1C)C(C)C", "note": "(stereo partly drawn)", "values": [
      {"measurement": "bioavailability", "setting": "[6]", "value": 47, "unit": "%"}
    ]},
    {"smiles": "C=C[C@@H](C)CC[C@@H]1CCC[C@]2(CC[C@H](C)[C@@H](CCCNC(=O)[C@@H](C)[C@@H](O)CNC(=O)CCOC)O2)O1", "values": [
      {"measurement": "Kd", "setting": "[2]", "value": 43, "unit": "nM"},
      {"measurement": "GI50", "setting": "A549", "value": 15100, "unit": "nM"}
    ]}
  ]
}
